Source: EP1151753B1, “PREVENTIVE AND THERAPEUTIC AGENTS FOR ARTERIOSCLEROSIS” (CCI CORPORATION, priority 1999, dated 2000)

Legend:
[1] = Lipoprotein analysis, cholesterol-loaded rabbit model; assay type: in vivo, New Zealand White (NZW) type rabbits; conditions: cholesterol-loaded NZW rabbits
Text: In the test, female and male New Zealand White (NZW) type rabbits (SPF: Kitayama Labels K.K.) which were seven weeks old at the time of arrival at the laboratory were subjected to quarantine and two weeks' domestication and visually inspected as to the general condition and, after the absence of abnormality was confirmed, put to use. The body weights at the time of starting administration (at the age of nine weeks) were in the range of 1.8 - 2.2 kg in the case of male rabbits and in the range of 1.6 - 2.0 kg in the case of female rabbits. Throughout the entire duration of the test, the animals were raised as accommodated one each in hanger cages of aluminum installed on a stainless steel rack inside a clean feeding chamber set at a temperature in the range of 20 - 26°, a relative humidity in the range of 40 - 70%, a number of ventilations in the range of 10 - 20 turns/hour, and an illumination time within the range of 12 hours (7.00 - 19:00). They were fed on a commercially available radioactively sterilized solid feed (a product containing 1% of cholesterol, made by Oriental Kobo K.K. and sold under the product code of "RC4") and they were left freely drinking the tap water delivered by an automatic water supplying device.
The dosage of TMG was set at 800 mg/head/day. The TMG was solved in reagent grade ethanol. The produced solution was sprayed on the 1% cholesterol-containing feed and the wet feed was left drying in the air. A mixed feed was prepared so as to contain 800 mg of TMG per 100 g of the feed. The mixed feed was given to the rabbits every morning at a rate of 100 g/day per head for 12 weeks for the sake of attaining oral consumption of the TMG. The feed for the control group was obtained by spraying ethanol alone on a feed containing 1% cholesterol and air-drying the wet feed. It was given to the rabbits of the control group at a rate of 100 g/day per heat for 12 weeks. […]
(§1) About 10 ml of blood was taken from the heart or the auricular artery of a rabbit experiencing 12 hours' fast prior to the start of the administration and on the 6th and 12th weeks of administration. […] The blood serum was ultracentrifuged by Hatch and Lees method (Hatch, F. T., and Lees, R. S. (1968) Advan, Lipid Res. 6, 1-68) using a centrifuge (the rotor; Beckman 70.1 Ti) made by Beckman and sold under the product code of "L-70") to separate low specific gravity lipoprotein (1.006 < d < 1.063), with the cholesterol amount of the LDL fraction determined by the cholesterol oxidase DASO method and the amount of HDL-cholesterol determined by subjecting the blood serum to the phospho-tungstic acid magnesium salt precipitation method. The amount of TMG was determined by the HPLC method.

[2] = Lipoprotein analysis, WHHL rabbit model; assay type: in vivo, WHHL type rabbits; conditions: WHHL rabbits
Text: 1. Animal used and feeding conditions In the test, female and male WHHL type rabbits (SPF: Kitayama Labels K.K.) which were eight weeks old at the time of arrival at the laboratory were subjected to quarantine and domestication and visually inspected as to the general condition and, after the absence of abnormality was confirmed, put to use. The body weights at the time of starting administration (at the age of nine weeks) were in the range of 1.5 - 1.9 kg in the case of male rabbits and in the range of 1.4 - 1.8 kg in the case of female rabbits. Throughout the entire duration of the test, the animals were raised as accommodated one each in hanger cages of aluminum installed on a stainless steel rack inside a clean feeding chamber set at a temperature in the range of 20 - 26°, a relative humidity in the range of 40 - 70%, a number of ventilations in the range of 10 - 20 turns/hour, and an illumination time within the range of 12 hours (7.00 - 19:00). They were fed on a commercially available radioactively sterilized solid feed (made by Oriental Kobo K.K. and sold under the product code of "RC4") and they were left freely drinking the tap water delivered by an automatic water supplying device. 2. Setting dosage and method of administration The dosage of TMG was set at 800 mg/head/day. The TMG was solved in reagent grade ethanol. The produced solution was sprayed on the feed and the wet feed was left drying in the air. A mixed feed was prepared so as to contain 800 mg of TMG per 100 g of the feed. The mixed feed was given to the rabbits every morning at a rate of 100 g/day per head for 27 weeks for the sake of attaining oral consumption of the TMG. The feed for the control group was obtained by spraying ethanol alone on a feed and air-drying the wet feed. It was given to the rabbits of the control group at a rate of 100 g/day per head for 27 weeks. 3. […] The blood was centrifuged to separate blood serum and the blood serum was analyzed for the items shown in Table 5 by the use of an automatic analyzer (made by Hitachi. Ltd. and sold under the product code of "736-20"). The body weight of each rabbit was measured at the rate of once a week throughout the entire duration of the administration.
as §1, with “5.” for “About 10 ml of blood was taken from the heart or the auricular artery of a rabbit experiencing 12 hours' fast prior to the start of the administration and on the 6th and 12th weeks of administration.”, “The amount of TMG was determined by the HPLC method.” left out

[3] = TMG 800 mg/head/day in feed, 12th week of administration, average ± SE
[4] = TMG 800 mg/head/day in feed, 26th week of administration, average ± SE

Cc1c(C)c2c(c(C)c1O)CCC(C)(C[C@H]1O[C@H](CO)[C@@H](O)[C@H](O)[C@H]1O)O2 (stereo partly drawn) [TMG, 2-(α-D-glucopyranosyl)methyl-2,5,7,8-tetramethyl chroman-6-ol]
LDL-TMG ([1]; amount of TMG in LDL fraction by HPLC, TMG 800 mg/head/day in feed, 12th week of administration): not detected
activity of lowering the HDL-cholesterol ([1]; TMG 800 mg/head/day for 12 weeks): no activity
HDL-CHO [1, 3]: 33 ± 5 mg/dL
LDL-CHO [1, 3]: 620 ± 34 mg/dL
activity of lowering the HDL-cholesterol ([2]; TMG 800 mg/head/day for 27 weeks): no activity
HDL-CHO [2, 4]: 5 ± 1 mg/dL
LDL-CHO [2, 4]: 746 ± 29 mg/dL
LDL-TMG ([2]; amount of TMG in LDL fraction by HPLC, TMG 800 mg/head/day in feed, 26th week of administration): not detected
